The source of these data is patent publication US12570659B2, “Bicyclic heteroaryl compounds useful as IRAK4 inhibitors” (BRISTOL-MYERS SQUIBB COMPANY, priority 2019, dated 2026).

Assay [1] addresses IRAK4 (Homo sapiens (Human), UniProt Q9NWZ3). Kind of assay: IRAK4 Inhibition Assay. Format: biochemical. The following applies: ATP 500 μM; IRAK4 0.6 nM; 60 min room temperature. The essentials:
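Reaction started by combining IRAK4 with substrates and compound, run 60 min at room temperature and stopped with 35 mM EDTA. Fluorescent substrate and phosphorylated product were separated electrophoretically on a Caliper LabChip; inhibition normalized to no-enzyme (100%) and vehicle-only (0%) controls.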

Assay [2] has as its target JAK3 kinase (Homo sapiens (Human), UniProt P52333). Kind of assay: JAK3 Homogeneous Time Resolved Fluorescence (HTRF) Assay. The assay is classed as binding. Particulars: for pIC50: competition binding with fluorescein-labeled ATP competitive probe; for Ratio of JAK3 IC50 to IRAK4 IC50: selectivity for IRAK4 over JAK3. The essentials:
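TR-FRET competition binding: 1 nM His- or GST-tagged JAK3 with 0.2 nM Tb-labeled anti-tag antibody, fluorescein ATP-competitive probe at its Kd, and compound for one hour. FRET read at 495/520 nm, normalized to no-compound signal. IC50 from 11 concentrations, 4-parameter logistic fit.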
For orientation: TR-FRET usually uses a lanthanide donor and a delayed reading to cut background.

pIC50: −log10 of the molar value.

Sequence of IRAK4 (Q9NWZ3 whole entry, species assumed): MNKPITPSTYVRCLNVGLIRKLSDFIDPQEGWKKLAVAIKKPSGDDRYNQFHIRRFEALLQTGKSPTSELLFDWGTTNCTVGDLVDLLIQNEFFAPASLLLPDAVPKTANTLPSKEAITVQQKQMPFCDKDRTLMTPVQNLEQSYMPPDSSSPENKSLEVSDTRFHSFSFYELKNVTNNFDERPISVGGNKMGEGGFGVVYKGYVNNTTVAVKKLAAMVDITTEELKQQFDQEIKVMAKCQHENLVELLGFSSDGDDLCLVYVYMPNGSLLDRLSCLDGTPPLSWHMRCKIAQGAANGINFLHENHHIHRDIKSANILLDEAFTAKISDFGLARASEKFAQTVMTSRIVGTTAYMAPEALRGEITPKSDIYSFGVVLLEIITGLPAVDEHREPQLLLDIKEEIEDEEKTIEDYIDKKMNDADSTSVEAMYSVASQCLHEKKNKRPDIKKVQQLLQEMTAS
Sequence of JAK3 kinase (P52333 whole entry): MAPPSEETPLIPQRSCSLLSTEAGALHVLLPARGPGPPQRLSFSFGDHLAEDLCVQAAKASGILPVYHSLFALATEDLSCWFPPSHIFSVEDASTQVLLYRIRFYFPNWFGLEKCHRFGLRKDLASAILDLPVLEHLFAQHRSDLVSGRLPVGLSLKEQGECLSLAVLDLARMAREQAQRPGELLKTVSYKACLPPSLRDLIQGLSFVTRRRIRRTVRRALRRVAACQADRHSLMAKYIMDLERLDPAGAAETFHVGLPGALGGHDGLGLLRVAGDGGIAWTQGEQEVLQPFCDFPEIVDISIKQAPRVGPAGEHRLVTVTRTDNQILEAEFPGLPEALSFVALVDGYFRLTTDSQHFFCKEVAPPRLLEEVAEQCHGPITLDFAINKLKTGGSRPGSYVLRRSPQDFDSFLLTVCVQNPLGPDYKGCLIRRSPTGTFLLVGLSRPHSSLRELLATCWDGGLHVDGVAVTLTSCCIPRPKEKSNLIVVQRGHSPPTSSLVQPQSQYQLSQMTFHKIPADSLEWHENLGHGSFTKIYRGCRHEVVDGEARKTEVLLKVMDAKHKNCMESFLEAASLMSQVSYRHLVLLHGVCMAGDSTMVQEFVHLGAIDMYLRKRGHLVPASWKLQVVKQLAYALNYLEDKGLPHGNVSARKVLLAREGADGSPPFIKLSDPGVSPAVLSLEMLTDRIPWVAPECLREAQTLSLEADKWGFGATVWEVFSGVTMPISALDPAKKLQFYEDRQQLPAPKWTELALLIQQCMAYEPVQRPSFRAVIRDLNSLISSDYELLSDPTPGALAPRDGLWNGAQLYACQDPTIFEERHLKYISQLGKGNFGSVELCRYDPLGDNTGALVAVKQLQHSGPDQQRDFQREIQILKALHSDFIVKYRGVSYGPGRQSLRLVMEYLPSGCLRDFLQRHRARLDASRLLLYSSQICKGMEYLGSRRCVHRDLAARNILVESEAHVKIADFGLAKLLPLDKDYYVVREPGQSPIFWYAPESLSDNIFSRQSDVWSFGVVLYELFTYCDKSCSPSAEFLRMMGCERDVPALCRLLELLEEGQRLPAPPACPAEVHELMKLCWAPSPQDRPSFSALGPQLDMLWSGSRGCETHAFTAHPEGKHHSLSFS

Turning to `CC(C)Nc1c(C(=O)NC[C@@H](F)C(C)(C)O)cnc2cc(-c3ccncc3F)nn12` [Example 137, (R)—N-(2-fluoro-3-hydroxy-3-methylbutyl)-2-(3-fluoropyridin-4-yl)-7-(isopropylamino) pyrazolo[1,5-a]pyrimidine-6-carboxamide], the negative-log IC50 (pIC50) (usually the negative decadic logarithm of the IC50, by convention in mol/L) in assay [1] is 8.08. For the same compound, in assay [2], the pIC50 is < 5.00 and the “Ratio of JAK3 IC50 to IRAK4 IC50” value was >1190.
With `CC(C)Nc1c(C(=O)NC[C@@H](F)C(C)(C)O)cnc2cc(-c3cncc(C#N)c3)nn12` [Example 124, (R)-2-(5-cyanopyridin-3-yl)-N-(2-fluoro-3-hydroxy-3-methylbutyl)-7-(isopropylamino) pyrazolo[1,5-a]pyrimidine-6-carboxamide], the negative logarithm of the IC50 (pIC50) in assay [1] was 6.44. In addition, in assay [2], the negative logarithm of the IC50 (pIC50) is < 4.30 and the “Ratio of JAK3 IC50 to IRAK4 IC50” value is on record as >139.
For `CC(C)Nc1c(C(=O)NC[C@@H](F)C(C)(C)O)cnc2cc(-c3cccc(C#N)c3)nn12` [Example 133, (R)-2-(3-cyanophenyl)-N-(2-fluoro-3-hydroxy-3-methylbutyl)-7-(isopropylamino)pyrazolo[1,5-a] pyrimidine-6-carboxamide], in that order: 6.89, < 5.70 and >15.
In the case of `COc1ncccc1-c1cc2c(NC(C)C)c(C(=O)N[C@H]3CC[C@H](NC(C)=O)CC3)cnn2c1` [Example 59, N-((1r,4r)-4-acetamidocyclohexyl)-4-(isopropylamino)-6-(2-methoxypyridin-3-yl)pyrrolo[1,2-b]pyridazine-3-carboxamide], the pIC50 in assay [1] was 7.54. Moreover, in assay [2], the pIC50 is ~4.48 and the “Ratio of JAK3 IC50 to IRAK4 IC50” value is ~1138.
With `CC(C)Nc1c(C(=O)NC[C@@H](F)C(C)(C)O)cnn2cc(-c3cncnc3)cc12` [Example 4, (R)—N-(2-fluoro-3-hydroxy-3-methylbutyl)-4-(isopropylamino)-6-(pyrimidin-5-yl)pyrrolo[1,2-b]pyridazine-3-carboxamide], the pIC50 is 7.72 in assay [1] and < 4.30 in assay [2]. The “Ratio of JAK3 IC50 to IRAK4 IC50” value in assay [2] is >2632.
`CC(C)(O)[C@H](F)CNC(=O)c1cnc2cc(-c3cccnc3)nn2c1N[C@H]1CC[C@H](C(C)(C)O)CC1` [Example 159, N—((R)-2-fluoro-3-hydroxy-3-methylbutyl)-7-(((1r,4R)-4-(2-hydroxypropan-2-yl)cyclohexyl)amino)-2-(pyridin-3-yl)pyrazolo[1,5-a]pyrimidine-6-carboxamide]: the values for the pIC50 in assay [1] and in assay [2] were 7.28 and < 4.30, respectively. In addition, in assay [2], the “Ratio of JAK3 IC50 to IRAK4 IC50” value is on record as >943.
For `CC(C)(C)CNc1c(C(=O)NC[C@@H](F)C(C)(C)O)cnc2cc(-c3cccnc3)nn12` [Example 155, (R)—N-(2-fluoro-3-hydroxy-3-methylbutyl)-7-(neopentylamino)-2-(pyridin-3-yl)pyrazolo[1,5-a]pyrimidine-6-carboxamide] the same measures were 7.05, < 4.30 and >556.
Take `CC(C)Nc1c(C(=O)NCCC(C)(C)O)cnn2cc(-c3ccncc3)nc12` [Example 105, N-(3-hydroxy-3-methylbutyl)-8-(isopropylamino)-2-(pyridin-4-yl)imidazo[1,2-b]pyridazine-7-carboxamide]: the negative logarithm of the IC50 (pIC50) in assay [1] was 7.21. In addition, in assay [2], the negative logarithm of the IC50 (pIC50) is < 4.30 and the “Ratio of JAK3 IC50 to IRAK4 IC50” value was >806.
As to `CC(C)(O)[C@H](F)CNC(=O)c1cnn2cc(-c3ccc(C#N)cn3)cc2c1NC1CCOCC1` [Example 20, (R)-6-(5-cyanopyridin-2-yl)-N-(2-fluoro-3-hydroxy-3-methylbutyl)-4-((tetrahydro-2H-pyran-4-yl)amino)pyrrolo[1,2-b] pyridazine-3-carboxamide], in assay [1], the pIC50 was 6.82. Besides, in assay [2], the negative-log IC50 (pIC50) was < 4.30 and the “Ratio of JAK3 IC50 to IRAK4 IC50” value is given as >333.
`Cc1ncccc1-c1cc2ncc(C(=O)NC[C@@H](F)C(C)(C)O)c(NC(C)C)n2n1` [Example 132, (R)—N-(2-fluoro-3-hydroxy-3-methylbutyl)-7-(isopropylamino)-2-(2-methylpyridin-3-yl)pyrazolo[1,5-a]pyrimidine-6-carboxamide]: the pIC50 in assay [1] was 6.64. Besides, in assay [2], the pIC50 was < 4.30 and the “Ratio of JAK3 IC50 to IRAK4 IC50” value was >217.
For `COc1cc(-c2cc3c(NC4CCOCC4)c(C(=O)NC[C@@H](F)C(C)(C)O)cnn3c2)ccn1` [Example 11, (R)—N-(2-fluoro-3-hydroxy-3-methylbutyl)-6-(2-methoxypyridin-4-yl)-4-((tetrahydro-2H-pyran-4-yl)amino)pyrrolo[1,2-b]pyridazine-3-carboxamide], in that order: 7.07, < 4.30 and >581.
Take `CC(C)Nc1c(C(=O)NCCC(C)(C)O)cnn2cc(-c3cn[nH]c3)nc12` [Example 107, N-(3-hydroxy-3-methylbutyl)-8-(isopropylamino)-2-(1H-pyrazol-4-yl)imidazo[1,2-b]pyridazine-7-carboxamide]: the results for the pIC50 in assay [1] and in assay [2] were 7.05 and < 4.30, respectively. In addition, in assay [2], the “Ratio of JAK3 IC50 to IRAK4 IC50” value was >556.
Regarding `CC(C)Nc1c(C(=O)NC[C@@H](F)C(C)(C)O)cnc2cc(-c3ccc(C#N)cc3)nn12` [Example 141, (R)-2-(4-cyanophenyl)-N-(2-fluoro-3-hydroxy-3-methylbutyl)-7-(isopropylamino)pyrazolo[1,5-a]pyrimidine-6-carboxamide], the figures for the pIC50 in assay [1] and in assay [2] were 7.96 and < 4.30, respectively. For the same compound, the “Ratio of JAK3 IC50 to IRAK4 IC50” value in assay [2] is given as >4545.
For `CC(C)Nc1c(C(=O)NC[C@@H](F)C(C)(C)O)cnc2cc(-c3cccnc3)nn12` [Example 115, (R)—N-(2-fluoro-3-hydroxy-3-methylbutyl)-7-(isopropylamino)-2-(pyridin-3-yl) pyrazolo[1,5-a]pyrimidine-6-carboxamide], in that order: 7.60, < 5.00 and >400.
For `CC(C)Nc1c(C(=O)NC[C@@H](F)C(C)(C)O)cnn2cc(-c3ccncc3F)cc12` [Example 47, (R)—N-(2-fluoro-3-hydroxy-3-methylbutyl)-6-(3-fluoropyridin-4-yl)-4-(isopropylamino)pyrrolo[1,2-b]pyridazine-3-carboxamide], the results for the pIC50 in assay [1] and in assay [2] were 8.46 and < 4.30, respectively. The “Ratio of JAK3 IC50 to IRAK4 IC50” value in assay [2] is >14286.
For `CC(C)Nc1c(C(=O)NCCN2CCOCC2)cnn2cc(-c3cn[nH]c3)nc12` [Example 110, 8-(isopropylamino)-N-(2-morpholinoethyl)-2-(1H-pyrazol-4-yl) imidazo[1,2-b]pyridazine-7-carboxamide], in that order: 6.82, < 4.30 and >333.
With `CC(C)Nc1c(C(=O)NC[C@@H](F)C(C)(C)O)cnn2cc(-c3cccc(C#N)c3)nc12` [Example 98, (R)-2-(3-cyanophenyl)-N-(2-fluoro-3-hydroxy-3-methylbutyl)-8-(isopropylamino)imidazo[1,2-b]pyridazine-7-carboxamide], in assay [1], the negative logarithm of the IC50 (pIC50) is 6.62. In assay [2], the pIC50 was < 4.30 and the “Ratio of JAK3 IC50 to IRAK4 IC50” value is on record as >208.
On to `CC(C)(O)CCNc1c(C(=O)NC[C@@H](F)C(C)(C)O)cnn2cc(-c3cccnc3F)cc12` [Example 22, (R)—N-(2-fluoro-3-hydroxy-3-methylbutyl)-6-(2-fluoropyridin-3-yl)-4-((3-hydroxy-3-methylbutyl)amino)pyrrolo[1,2-b]pyridazine-3-carboxamide], for which the pIC50 in assay [1] is 6.74. For the same compound, in assay [2], the pIC50 is < 4.30 and the “Ratio of JAK3 IC50 to IRAK4 IC50” value is reported as >278.
Turning to `CC(C)Nc1c(C(=O)NC[C@@H](F)C(C)(C)O)cnn2cc(-c3ccc(C#N)nc3)nc12` [Example 101, (R)-2-(6-cyanopyridin-3-yl)-N-(2-fluoro-3-hydroxy-3-methylbutyl)-8-(isopropylamino)imidazo[1,2-b]pyridazine-7-carboxamide], the pIC50 in assay [1] was 7.15. In assay [2], the negative logarithm of the IC50 (pIC50) is < 4.30 and the “Ratio of JAK3 IC50 to IRAK4 IC50” value is reported as >714.
Turning to `COc1ncccc1-c1cc2ncc(C(=O)NC[C@@H](F)C(C)(C)O)c(NC(C)C)n2n1` [Example 143, (R)—N-(2-fluoro-3-hydroxy-3-methylbutyl)-7-(isopropylamino)-2-(2-methoxypyridin-3-yl)pyrazolo[1,5-a]pyrimidine-6-carboxamide], the pIC50 is 6.20 in assay [1] and < 5.00 in assay [2]. Moreover, the “Ratio of JAK3 IC50 to IRAK4 IC50” value in assay [2] is recorded as >16.
On to `CC(C)(O)[C@H](F)CNC(=O)c1cnn2cc(-c3ccccc3)cc2c1NC1CC1` [Example 31, (R)-4-(cyclopropylamino)-N-(2-fluoro-3-hydroxy-3-methylbutyl)-6-phenylpyrrolo[1,2-b] pyridazine-3-carboxamide], for which the negative-log IC50 (pIC50) in assay [1] is 7.48. In addition, in assay [2], the pIC50 is < 5.70 and the “Ratio of JAK3 IC50 to IRAK4 IC50” value is listed as >61.
On to `CC(C)Nc1c(C(=O)NC[C@@H](F)C(C)(C)O)cnc2cc(C3CC3)nn12` [Example 147, (R)-2-cyclopropyl-N-(2-fluoro-3-hydroxy-3-methylbutyl)-7-(isopropylamino)pyrazolo[1,5-a]pyrimidine-6-carboxamide], for which the pIC50 in assay [1] is 6.38; in assay [2], < 4.30. For the same compound, in assay [2], the “Ratio of JAK3 IC50 to IRAK4 IC50” value is recorded as >119.
As to `Cc1ccccc1-c1cc2ncc(C(=O)NC[C@@H](F)C(C)(C)O)c(NC(C)C)n2n1` [Example 136, (R)—N-(2-fluoro-3-hydroxy-3-methylbutyl)-7-(isopropylamino)-2-(o-tolyl)pyrazolo[1,5-a]pyrimidine-6-carboxamide], the pIC50 in assay [1] was 6.29; in assay [2], < 5.00. In assay [2], the “Ratio of JAK3 IC50 to IRAK4 IC50” value is >20.
